Data published in US20250243174A1, “ANTITUMORAL COMPOUNDS” (PHARMA MAR, S.A., priority 2021, published 2025).

How the values were obtained:
Type in all cases: in vivo
[1] = MTMD (Maximum Tolerated Multiple Dose) determination; conditions: iv, Q7dx3; female athymic nude mice
Description: Female Athymic Nude-Fox1 nu/nu mice (Envigo) were utilized for all experiments. Animals (N=10/cage) were housed in individually ventilated cages (Sealsafe Plus®, Techniplast S.P.A.), on a 12-hour light-dark cycle at 21-23° C. and 40-60% humidity. Mice were allowed free access to irradiated standard rodent diet (Tecklad 2914C) and sterilized water. Animals were acclimated for five days prior to being individually tattoo-identified. Animal protocols were reviewed and approved according to the regional Institutional Animal Care and Use Committees.
Mice were randomly allocated into experimental groups and intravenously administered, once for the MTD (Maximum Tolerated Dose) determination or one administration a week during three consecutive weeks, for the MTMD (Maximum Tolerated Multiple Dose) determination study. The animals were administered with white formulation or with compound dissolved in the experimental formulation at different concentrations. The volume administered was always 10 mL/kg. Once administered, animals were monitored for clinical signs of systemic toxicity, changes in body weight and mortality up to 14 days after the administration.

HGC-27 xenografts = test: Example 6, gastric xenograft model HGC-27; conditions: for mean body weight reduction: Day 2, compound 2 2.0, compound 3 1.0, PM060184 16 mg/kg; for TV, median (IQR) / Median survival time: iv Q7dx3; for TV, median (IQR): high dose: PM060184 16, Comp. 2 2, Comp. 3 1 mg/kg; for mean time frame with tumor remission: high dose: compound 2 2.0, compound 3 1.0, PM060184 16 mg/kg, last observed day 63; for animals in complete tumor remission status: highest dose: compound 2 2.0, compound 3 1.0 mg/kg; for antitumor activity compared to PM060184-treated group at 16 mg/kg: once treatments were stopped (days 28, 35), 2 at 2 mg/kg, 3 at 1 mg/kg
Description: (§1) Female athymic nu/nu mice (Harlan Laboratories Models, S.L. Barcelona, Spain or Envigo, Spain) were utilized for all experiments. Animal were housed in individually ventilated cages Sealsafe® Plus, Techniplast S.P.A.), up to ten per cage on a 12-hour light-dark cycle at 21-23° C. and 40-60% humidity. Mice were allowed free access to irradiated standard rodent diet (Tecklad 2914C) and sterilized water. Animals were acclimated for at least 5 days prior to tumor implantation with a tumor cell suspension.
HGC27 cells were maintained in vitro at 37° C. with 5% CO2 in Iscove's Modified Dulbecco's Medium (Sigma Aldrich, Co). Culture cells were passage every 3 to 5 days on reaching confluence. Each animal was subcutaneously implanted (on the right flank using 26G needle and a 1 cc syringe) at 4-6 weeks of age with 5×10^6 HGC-27 cells suspended in 0.05 mL of a solution consisting of 50% Matrigel® (Corning Incorporated Life Sciences), 50% medium without serum or antibiotics.
(§2) All treatments were intravenously administered on a weekly basis at their MTD, ¼ MTD and 1/16 MTD (high, medium and low dose).
(§3) Briefly: • 4 to 6 week-old athymic nu/nu female mice were subcutaneously implanted with tumor cells growing in culture. • When tumors reached a certain volume, tumor bearing animals (N=8-10/group) were randomly allocated into treatment groups. • Tumor dimensions and body weights were recorded 2-3 times per week starting from the first day of treatment (Day 0). Treatments producing >20% lethality and/or 20% net body weight loss were considered toxic. Tumor volume was calculated using the equation (a·b^2)/2, where a and b were the longest and shortest diameters, respectively. Animals were euthanized when their tumors reached ca. 2,000 mm^3 and/or severe necrosis was seen. • Median was calculated for tumor volume on each measurement day. • Antitumor effect was assessed comparing tumor volume data from groups following the 1st, 2nd, 3rd study weeks, or more depending on the case, using a two-tailed Mann-Whitney U test. The data are presented as medians and interquartile range (IQR). • Complete tumor regression (CR) was defined when tumor volume<63 mm^3 for 2 or more consecutive measurements. • Treatment tolerability was assessed by monitoring body weight evolution, clinical signs of systemic toxicity as well as evidences of local damage at the injection site.
(§4) PM060184 was provided in the form of freeze-dried vials of lyophilized product. Each vial was reconstituted with water for infusion to a concentration of 2.5 mg/mL.
(§5) Compounds 2 and 3 were provided in the powder form and were solubilized with hydroxy-propyl-β-cyclodextrin (HPβCD), reaching a concentration of 1 mg/ml or 0.2 mg/ml, respectively. Placebo was provided in the form of lyophilised cake containing 1.2 g of hydroxy-propyl-β-cyclodextrin (HPβCD) which was reconstituted with water for infusion.
(§6) In these experiments, compounds 2, 3 and PM060184, as well as placebo, were intravenously administered once per week for 3 consecutive weeks, on Days 0, 7 and 14, whenever it was possible.
The experiment was carried out as previously explained. When tumors reached ca. 165-175 mm^3, tumor bearing animals (N=8/group) were randomly allocated into the following treatment groups:
(§7) Treatments were initiated on Day 0.

HCT-116 xenografts = test: Example 7, colon xenograft model HCT-116; conditions: for TV, median (IQR) / Median survival time: iv Q7dx3; for TV, median (IQR): high dose: PM060184 16, Comp. 2 2, Comp. 3 1 mg/kg; for mean time with tumor remission: high dose: compound 2 2.0, compound 3 1.0, PM060184 16 mg/kg; for animals in complete tumor remission: highest dose: compound 2 2.0, compound 3 1.0 mg/kg; for antitumor activity compared to PM060184-treated group at 16 mg/kg: once treatments were finalized (days 21 to 35), 2 at 2 mg/kg, 3 at 1 mg/kg; for mean body weight reduction: recorded on Day 9, compound 2 2.0 mg/kg, compound 3 1.0 mg/kg
Description: as §1
HCT116 cells were maintained in vitro at 37° C., 5% Co2 in McCoy's 5A Medium (Sigma Aldrich, Co.). Culture cells were passage every 3 to 5 days on reaching confluence. Each animal was subcutaneously implanted (on the right flank using 26G needle and a 1 cc syringe) at 4-6 weeks of age with 5×10^6 HCT116 cells suspended in 0.05 mL of a solution consisting of 50% Matrigel® (Corning Incorporated Life Sciences) and 50% medium without serum or antibiotics.
as §2, §3, §4, §5, §6
The experiment was carried out as previously explained. When tumors reached ca. 195-205 mm^3, tumor bearing animals (N=10/group) were randomly allocated into the following treatment groups:
as §7

[2] = high dose: PM060184 16.0, Comp. 2 2.0, Comp. 3 1.0 mg/kg, ud = group not reached mortality
[3] = low dose: PM060184 1.0, Comp. 2 0.125, Comp. 3 0.0625 mg/kg
[4] = medium dose: PM060184 4.0, Comp. 2 0.5, Comp. 3 0.25 mg/kg
[5] = medium-dose: compound 2 0.5, compound 3 0.25 mg/kg

Row | Compound | MTMD [1] [mg/kg] | mean body weight reduction (HGC-27 xenografts) | TV, median (IQR) (HGC-27 xenografts; Day 7) | TV, median (IQR) (HGC-27 xenografts; Day 14) | TV, median (IQR) (HGC-27 xenografts; Day 21) | TV, median (IQR) (HGC-27 xenografts; Day 28) | TV, median (IQR) (HGC-27 xenografts; Day 35) | Median survival time (HGC-27 xenografts; [2]) | mean time frame with tumor remission (HGC-27 xenografts) | Median survival time (HGC-27 xenografts; [3]) [days] | Median survival time (HGC-27 xenografts; [4]) [days] | TV, median (IQR) (HCT-116 xenografts; Day 7) | TV, median (IQR) (HCT-116 xenografts; Day 14) | TV, median (IQR) (HCT-116 xenografts; Day 21) | TV, median (IQR) (HCT-116 xenografts; Day 28) | TV, median (IQR) (HCT-116 xenografts; Day 35) | Median survival time (HCT-116 xenografts; [2]) | mean time with tumor remission (HCT-116 xenografts) [days] | Median survival time (HCT-116 xenografts; [3]) [days] | Median survival time (HCT-116 xenografts; [4]) [days] | also measured
1 | COC1=CC[C@@H]([C@@H](C)/C=C(C)/C=C\C=C/C(=O)N[C@H](C(=O)N/C=C\C[C@H](C/C=C(\C)F)OC(N)=O)C(C)(C)C)OC1=O [Compound 2] | 2.0 | ca. −13.1% | 313.6 (237.3-482.4) mm3 | 143.2 (96.1-223.6) mm3 | 75.0 (51.6-75.0) mm3 | 42.5 (37.0-63.9) mm3 | 32.9 (20.4-36.6) mm3 | ud | higher than 29.1 days | 14 | 38.5 | 135.5 (114.1-154.5) mm3 | 57.2 (47.1-62.9) mm3 | 25.0 (13.5-34.0) mm3 | 13.5 (13.5-32.0) mm3 | 13.5 (13.5-13.5) mm3 | ud | 25.8 | 19 | 58 | animals in complete tumor remission status (HGC-27 xenografts): 100%; antitumor activity compared to PM060184-treated group at 16 mg/kg (HGC-27 xenografts): big difference, in terms of antitumor activity, statistically significant; animals in complete tumor remission (HCT-116 xenografts): 100%; animals that reached a complete remission (n/10) (HCT-116 xenografts; [5]): 4/10; complete remission lasted a mean of (HCT-116 xenografts; [5]): 9 days; antitumor activity compared to PM060184-treated group at 16 mg/kg (HCT-116 xenografts): big difference, in terms of antitumor activity, statistically significant; mean body weight reduction (HCT-116 xenografts): ca. −13.5%
2 | COC1=CC[C@@H]([C@@H](C)/C=C(C)/C=C\C=C/C(=O)N[C@H](C(=O)N/C=C\C[C@H](CC=C(C)C)OC(N)=O)C(C)(C)C)OC1=O [Compound 3] | 1.0 | ca. −13.1% | 366.0 (300.1-479.8) mm3 | 177.1 (142.3-256.0) mm3 | 75.0 (65.6-84.4) mm3 | 66.7 (38.2-73.7) mm3 | 27.3 (21.4-41.4) mm3 | ud | higher than 31.5 days | 12 | 30 | 121.6 (86.3-164.8) mm3 | 55.6 (16.2-82.3) mm3 | 32.0 (4.0-40.0) mm3 | 13.5 (4.0-13.5) mm3 | 13.5 (13.5-13.5) mm3 | ud | 23.7 | 14 | 49 | animals in complete tumor remission status (HGC-27 xenografts): 100%; antitumor activity compared to PM060184-treated group at 16 mg/kg (HGC-27 xenografts): big difference, in terms of antitumor activity, statistically significant; animals in complete tumor remission (HCT-116 xenografts): 100%; animals that reached a complete remission (n/10) (HCT-116 xenografts; [5]): 1/10; complete remission lasted a mean of (HCT-116 xenografts; [5]): 2 days; antitumor activity compared to PM060184-treated group at 16 mg/kg (HCT-116 xenografts): big difference, in terms of antitumor activity, statistically significant; mean body weight reduction (HCT-116 xenografts): ca. −16.2%
3 | C/C=C\C[C@@H](C/C=C\NC(=O)[C@@H](NC(=O)\C=C/C=C\C(C)=C\[C@H](C)[C@@H]1CC=C(OC)C(=O)O1)C(C)(C)C)OC(N)=O [PM060184, reference compound] | 16.0 | ca. −4.1% | 250.7 (212.8-433.0) mm3 | 124.8 (102.8-213.2) mm3 | 88.5 (68.2-118.3) mm3 | 114.4 (63.7-155.1) mm3 | 267.3 (100.4-414.0) mm3 | 56 days | 18 days | 15 | 27 | 140.5 (123.0-157.3) mm3 | 59.2 (50.7-84.2) mm3 | 63.8 (43.6-80.0) mm3 | 265.7 (195.2-284.3) mm3 | 650.2 (516.7-732.6) mm3 | 47 days | 5.8 | 19 | 43 | animals that reached a complete remission (number out of eight) (HGC-27 xenografts; PM060184 16 mg/kg (high-dose)): three out of eight; animals that reached a complete remission (n/10) (HCT-116 xenografts; high-dose: PM060184 16 mg/kg): 6/10; body weight decrease (HCT-116 xenografts; recorded on Day 2, PM060184 16 mg/kg): ca. −3.2%
